Literature values in patent US4127522A, “Novel triacontapeptides, intermediates therefor and pharmaceutical compositions and methods employing said triacontapeptides” (priority 1977, dated 1978).

How the values were obtained:
[1] = system: partially purified brain opiate receptor sites; settings: natural peptide; Bradbury et al.
[2] = injected directly into the brain of the rat; Belluzzi et al.

Substance: H-Tyr-Gly-Gly-Phe-Met-OH [methionine enkephalin]
- binding to partially purified brain opiate receptor sites [1]: binds stereo-specifically
- activity in bioassays for opiate activity (opiate activity): very active
- analgesic activity [2]: only weak analgesic agent of short duration
